Results on two molecules are retold here after patent US20140031388A1, “AKT INACTIVATION BY TOCOPHERYL DERIVATIVES” (priority 2012, published 2014).

One assay deals with LNCaP cells. Briefly: MTT viability assay, LNCaP. The format is cell-based. The conditions noted are these: Homo sapiens, 1% FBS-containing or serum-free RPMI 1640 medium for 24 h. The procedure: The prostate cancer cell lines, LNCaP and PC-3, were purchased from American Type Culture Collection (Manassas, Va.) and maintained in RPMI 1640 medium containing 10% heat-inactivated fetal bovine serum at 37° C. in a humidified incubator containing 5% CO2. The LNCaP-abl cells were a generous gift from Dr. Qianben Wang (The Ohio State University). Normal prostate epithelial cells were purchased from Lonza (Walkersville, Md.) and were cultured in the vendor-recommended defined prostate epithelial cell growth medium. For experiments, LNCaP cells were plated on poly-D-lysine-coated culture flasks at a density of 12,000 cells per cm^2 surface area for 24 hours, followed by treatment with test agents in serum-free RPMI 1640 medium. The α- and γ-tocopherols were purchased from Sigma-Aldrich (St. Louis, Mo.). The tocopherol derivatives, α- and γ-VE5, were synthesized by the inventors.
LNCaP cells were plated into poly-D-lysine-coated 96-well plates and PC-3 and LNCaP-abl cells into uncoated plates at the density of 5,000 cells per well in the presence of 10% FBS. Normal prostate epithelial cells were plated into uncoated plates at a density of 8,000 cells per well. […] After 24 hours of treatment, cells were incubated with MTT [3-(4,5-dimethylthiazol-2-yl)-2,5-diphenyl-2H-tetrazolium bromide] (TCI America; 0.5 mg/ml, final concentration) for an additional 2 hours. The medium was then removed from each well and replaced with DMSO to dissolve the reduced MTT dye for subsequent colorimetric measurement of absorbance at 595 nm. Cell viabilities are calculated as percentages of that in the corresponding vehicle-treated control group.
For orientation: Tetrazolium assays rely on reduction of a dye to a coloured formazan, in cell work by metabolically active cells.

Assay [1] addresses T1, PH domain of PHLPP1 (GST-PH domain fusion protein) (Homo sapiens, UniProt O60346).
T1 construct: made in house
T1 sequence (O60346 536-636 limits assumed): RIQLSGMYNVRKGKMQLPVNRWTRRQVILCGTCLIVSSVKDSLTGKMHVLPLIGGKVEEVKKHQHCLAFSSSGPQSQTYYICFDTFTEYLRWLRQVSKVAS
Briefly: Surface plasmon resonance binding, PHLPP1 PH domain. The conditions noted are these: SPR; means (n = 3) ± SD; read-out: Kd, PHLPP1 PH domain. From the text: The cDNA fragments corresponding to the putative PH domain sequences of PHLPP1 (+115 to +372), PDK1 (+1225 to +1671), Akt1 (+1 to +447) and ILK (+538 to +646) were PCR-amplified using the plasmids pcDNA-HA-PHLPP1, pWZL-Neo-Myr-FLAG-PDPK1, pcDNA-HA-PKB-T308D-S473D, and pCMV-SPORT-ILK (Addgene) as templates. The PCR products were then cloned into EcoRI/XhoI sites of the pGEX-4T1 expression vector (GE Healthcare Life Sciences) to generate four constructs (pGEX-4T1-PHLPP1, pGEX-4T1-PDPK1, pGEX-4T1-AKT1, pGEX-4T1-ILK) for the expression of GST-PH domain fusion proteins. The mutated Akt1 Y38G PH domain was generated from pGEX-4T1-AKT1 by site-directed mutagenesis using the QuikChange II XL Site-Directed Mutagenesis Kit (Agilent Technologies). The expression and purification of GST-PH domain fusion proteins were performed essentially as described previously. Thomas et al., Curr Biol 12, 1256 (2002). The purified PH domains were analyzed by SDS-PAGE using an overloaded gel with purities were estimated to be >95% using ImageJ software.
Binding experiments were performed using a Biacore T100 system (GE Healthcare, Piscataway, N.J.). The GST-PH domain fusion proteins were immobilized on a CM5 S Sensorchip using Biacore's Amine Coupling Kit to a level of 17,000 response units. VE5 compounds and di-octanoyl PIP3 at concentrations ranging from 0.1 to 100 μM and 1 to 20 μm, respectively, were injected at a high flow rate (30 μL/min) over the biosensor surface for binding analyses. DMSO concentrations in all samples and running buffer were 1% (v/v) or less. Data were analyzed using Biacore T100 Evaluation Software.

The test system of assay [2] is Akt membrane localization in LNCaP cells. The assay is described as follows: Immunocytochemistry, membrane localization of Akt. The format is cell-based. The conditions noted are these: DMSO-treated cells 38.0±5.7%. The procedure:
After 24 hours treatment, LNCaP cells were fixed in 4% formaldehyde for 20 min before permeabilization with 0.1% Triton X-100 in PBS at room temperature for 1 hour followed by incubation in 1% FBS (in PBS) for 1 hour. Cells were stained for endogenous PH domain-containing proteins (Akt, PHLPP, PDK-1, ILK, BTK) by incubation with specific antibodies (1:100), followed by incubation with the Alexa Fluor 555-conjugated goat anti-rabbit or Alexa Fluor 488-conjugated goat anti-mouse IgG (1:200) at room temperature for 2 hours. Both primary and secondary antibodies were diluted in incubation buffer containing 0.1% Triton X-100 and 0.2% bovine serum albumin in PBS. The cells were washed in PBS after each step and mounted using […] mounting medium supplemented with DAPI (Vector Laboratories Inc., Burlingame, Calif.). The slides were allowed to set for at least 4 hours before confocal images were acquired using a Zeiss LSM 510 inverted confocal laser scanning microscope operated with Zeiss LSM 510 software. Image analysis was performed using ImageJ (NIH) software.

The subject of assay [3] is phosphorylation of Ser473 in Akt. Briefly: Western blot of Akt phosphorylation at Ser473. The conditions noted are these: LNCaP and PC-3 cells, Thr308 not altered. The format is cell-based. The method, then:
Cells were exposed to the test agents in 10-cm dishes for 24 hours and then collected by scraping. The cell pellets were washed once with PBS, and then lysed at 4° C. over 30 min of incubation in a sodium dodecyl sulfate (SDS) lysis buffer containing 1% SDS, 50 mM Tris HCl (pH 8.1), 10 mM EDTA and […] protease inhibitor cocktail (Sigma-Aldrich). The cell debris was pelleted by centrifugation for 20 min at 14,000×g, and 1 μl of each supernatant was used for determination of protein concentration using a colorimetric bicinchoninic assay (Pierce, Rockford, Ill.). The remaining sample was added to equal volume of 2×SDS-polyacrylamide gel electrophoresis sample loading buffer (62.5 mM Tris-HCl, pH 6.8, 4% SDS, 5% β-mercaptoethanol, 20% glycerol, 0.1% bromophenol blue), followed by incubation in boiling water for 5 min. Equivalent amounts of total protein were resolved in SDS-polyacrylamide gels, and then transferred to nitrocellulose membranes using a semidry transfer cell. The transblotted membrane was washed twice with Tris-buffered saline containing 0.1% Tween 20 (TBST). After blocking with TBST containing 5% nonfat milk for 40 min, the membrane was incubated with the appropriate primary antibody (1:1000) in TBST-1% nonfat milk at 4° C. overnight. The membrane was then washed three times with TBST for a total of 15 min, followed by incubation with goat anti-rabbit or anti-mouse IgG-horseradish peroxidase conjugates (1:2000) for 1 hour at room temperature and four washes with TBST for a total of 1 hour. The immunoblots were visualized by enhanced chemiluminescence (GE Healthcare Life Sciences).
(In general: A western blot detects proteins with antibodies after separation by electrophoresis.)

As a reminder, the IC50 is the concentration that inhibits the measured activity by half. A lower IC50 goes with greater potency. Usually Kd stands for the free concentration of one partner at which half of the binding sites on the other are occupied at equilibrium, for simple one-to-one binding. `Cc1c(O)cc2c(c1C)O[C@](C)(CCCC(C)C)CC2` [γ-VE5, (R)-2,7,8-trimethyl-2-(4-methylpentyl)-chroman-6-ol] had an IC50 in the assay with LNCaP cells (24 h) of 12 µM. For the same molecule, the dissociation constant Kd in assay [1] was found to be 0.7 ± 0.1 µM. Besides, the “cells with membrane localization of Akt” value in assay [2] stood at 71.4±2.5%. Moreover, in assay [3], the “effect on phosphorylation of Akt at Ser473” value is reported as “parallel reduction”.
Consider `Cc1c(C)c2c(c(C)c1O)CC[C@@](C)(CCCC(C)C)O2` [α-VE5, (R)-2,5,7,8-tetramethyl-2-(4-methylpentyl)-chroman-6-ol], for which the IC50 in the assay with LNCaP cells amounted to 20 µM. Besides, in assay [1], the dissociation constant (Kd) stood at 3.1 ± 0.3 µM. The “cells with membrane localization of Akt” value in assay [2] amounted to 65.0±8.9%. Besides, the “effect on phosphorylation of Akt at Ser473” value in assay [3] is recorded as “parallel reduction”.
